Test results taken from ChEMBL document CHEMBL1201862, “PubChem BioAssay data set” (2004).
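Where inhibition never reached the appropriate level, the endpoint shown equals the highest concentration tested. Otherwise, values were interpolated linearly from a five-concentration, 48-hour dose response in 96-well plates. Here, GI50 denotes the concentration required for 50% inhibition of growth.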 The source made the active and inactive calls. No stated cut-off is given here; in the data, active = GI50 up to about 1.1 µM and inactive = higher.

Columns and labels:
Assay in all cases: inhibition of tumour cell growth, NCI panel, 48 h
COLO 205 = tested on: COLO 205
NCI/ADR-RES = tested on: NCI/ADR-RES
IGROV-1 = tested on: IGROV-1
NCI-H522 = tested on: NCI-H522
MDA-MB-435 = tested on: MDA-MB-435
HCC 2998 = tested on: HCC 2998
SF-539 = tested on: SF-539
MOLT-4 = tested on: MOLT-4
MCF7 = tested on: MCF7
HCT-116 = tested on: HCT-116
TK-10 = tested on: TK-10
LOX IMVI = tested on: LOX IMVI
OVCAR-5 = tested on: OVCAR-5
MDA-MB-231 = tested on: MDA-MB-231
OVCAR-3 = tested on: OVCAR-3
HOP-62 = tested on: HOP-62
SK-MEL-5 = tested on: SK-MEL-5
Malme-3M = tested on: Malme-3M
A549 = tested on: A549
HCT-15 = tested on: HCT-15

SMILES	GI50 (COLO 205)	GI50 (NCI/ADR-RES)	GI50 (IGROV-1)	GI50 (NCI-H522)	GI50 (MDA-MB-435)	GI50 (HCC 2998)	GI50 (SF-539)	GI50 (MOLT-4)	GI50 (MCF7)	GI50 (HCT-116)	GI50 (TK-10)	GI50 (LOX IMVI)	GI50 (OVCAR-5)	GI50 (MDA-MB-231)	GI50 (OVCAR-3)	GI50 (HOP-62)	GI50 (SK-MEL-5)	GI50 (Malme-3M)	GI50 (A549)	GI50 (HCT-15) [µM]
COc1cccc2cc(C(C)=O)c(=O)oc12	> 100 µM (inactive)	> 100 µM (inactive)	> 100 µM (inactive)	> 100 µM (inactive)	> 100 µM (inactive)	> 100 µM (inactive)	> 100 µM (inactive)	> 100 µM (inactive)	> 100 µM (inactive)	> 100 µM (inactive)	> 100 µM (inactive)	> 100 µM (inactive)	> 100 µM (inactive)	> 100 µM (inactive)	> 100 µM (inactive)	> 100 µM (inactive)	> 100 µM (inactive)	52.8 µM (inactive)	> 100 µM (inactive)	–
Cc1ccc2c(c1)S(=O)(=O)c1ccc3ccccc3c1N2	> 100 µM (inactive)	> 100 µM (inactive)	> 100 µM (inactive)	> 100 µM (inactive)	> 100 µM (inactive)	> 100 µM (inactive)	> 100 µM (inactive)	> 100 µM (inactive)	> 100 µM (inactive)	> 100 µM (inactive)	> 100 µM (inactive)	> 100 µM (inactive)	> 100 µM (inactive)	> 100 µM (inactive)	> 100 µM (inactive)	> 100 µM (inactive)	> 100 µM (inactive)	–	> 100 µM (inactive)	> 100
Cc1cc2[nH]c3c(C#N)c(-c4ccccc4)c(/N=N/c4ccc(F)cc4)c(=O)n3c2cc1C	> 100 µM (inactive)	> 100 µM (inactive)	–	18.5 µM (inactive)	> 100 µM (inactive)	> 100 µM (inactive)	> 100 µM (inactive)	–	> 100 µM (inactive)	25.6 µM (inactive)	> 100 µM (inactive)	> 100 µM (inactive)	> 100 µM (inactive)	> 100 µM (inactive)	3.21 µM (inactive)	> 100 µM (inactive)	9.55 µM (inactive)	–	68.1 µM (inactive)	36.6
CCOC(=O)/C(C(N)=O)=C(/O)c1cnccn1	> 100 µM (inactive)	> 100 µM (inactive)	> 100 µM (inactive)	> 100 µM (inactive)	> 100 µM (inactive)	> 100 µM (inactive)	> 100 µM (inactive)	> 100 µM (inactive)	> 100 µM (inactive)	> 100 µM (inactive)	–	> 100 µM (inactive)	> 100 µM (inactive)	> 100 µM (inactive)	> 100 µM (inactive)	–	> 100 µM (inactive)	> 100 µM (inactive)	> 100 µM (inactive)	> 100
CCOc1ccc(-n2c(=O)n3c(Nc4ccc(Cl)cc4)nc4c(c(=O)n(C)c(=O)n4C)n3c2=O)cc1	21.6 µM (inactive)	> 100 µM (inactive)	37.4 µM (inactive)	18.1 µM (inactive)	20.3 µM (inactive)	19.5 µM (inactive)	41 µM (inactive)	23.9 µM (inactive)	57.3 µM (inactive)	19.5 µM (inactive)	18.8 µM (inactive)	20.4 µM (inactive)	37.6 µM (inactive)	15.5 µM (inactive)	23 µM (inactive)	71.1 µM (inactive)	19 µM (inactive)	–	75.5 µM (inactive)	20.7
[O-][n+]1nc(N2CCOCC2)nc2ccccc21	> 100 µM (inactive)	> 100 µM (inactive)	> 100 µM (inactive)	> 100 µM (inactive)	> 100 µM (inactive)	> 100 µM (inactive)	> 100 µM (inactive)	> 100 µM (inactive)	> 100 µM (inactive)	> 100 µM (inactive)	77.1 µM (inactive)	> 100 µM (inactive)	> 100 µM (inactive)	> 100 µM (inactive)	–	> 100 µM (inactive)	–	> 100 µM (inactive)	> 100 µM (inactive)	> 100
COc1cc(C)c(/C=C2/N=C(c3ccccc3)OC2=O)c([N+](=O)[O-])c1OC	> 100 µM (inactive)	> 100 µM (inactive)	> 100 µM (inactive)	> 100 µM (inactive)	> 100 µM (inactive)	> 100 µM (inactive)	> 100 µM (inactive)	> 100 µM (inactive)	> 100 µM (inactive)	> 100 µM (inactive)	> 100 µM (inactive)	> 100 µM (inactive)	> 100 µM (inactive)	> 100 µM (inactive)	> 100 µM (inactive)	> 100 µM (inactive)	–	> 100 µM (inactive)	> 100 µM (inactive)	> 100
[O-][S+]1CC[S+]([O-])CC[S+]([O-])CC1 (stereo not drawn)	> 100 µM (inactive)	> 100 µM (inactive)	> 100 µM (inactive)	> 100 µM (inactive)	> 100 µM (inactive)	> 100 µM (inactive)	> 100 µM (inactive)	> 100 µM (inactive)	> 100 µM (inactive)	> 100 µM (inactive)	> 100 µM (inactive)	> 100 µM (inactive)	> 100 µM (inactive)	> 100 µM (inactive)	> 100 µM (inactive)	> 100 µM (inactive)	> 100 µM (inactive)	–	> 100 µM (inactive)	> 100
COc1ccc(NC(=O)CSc2nc(C)nc3c2sc(=S)n3-c2ccccc2)cc1	7.28 µM (inactive)	8.51 µM (inactive)	> 10 µM (inactive)	> 10 µM (inactive)	7.91 µM (inactive)	> 10 µM (inactive)	2.43 µM (inactive)	> 10 µM (inactive)	8.11 µM (inactive)	8.28 µM (inactive)	> 10 µM (inactive)	> 10 µM (inactive)	> 10 µM (inactive)	> 10 µM (inactive)	6.15 µM (inactive)	5.27 µM (inactive)	> 10 µM (inactive)	> 10 µM (inactive)	> 10 µM (inactive)	> 10
O=c1[nH]nc(Nc2ccc(Cl)cc2)c2nnn(C3CCCCC3)c12	59.2 µM (inactive)	32.1 µM (inactive)	> 100 µM (inactive)	23.9 µM (inactive)	46.3 µM (inactive)	> 100 µM (inactive)	> 100 µM (inactive)	–	58.5 µM (inactive)	42.1 µM (inactive)	53 µM (inactive)	16.4 µM (inactive)	> 100 µM (inactive)	13.9 µM (inactive)	37.2 µM (inactive)	30.8 µM (inactive)	> 100 µM (inactive)	50.8 µM (inactive)	> 100 µM (inactive)	72.8
CN(CCCCCl)P(=O)(OCc1ccc([N+](=O)[O-])o1)OCC1OC(n2ccc(N)nc2=O)C(O)C1O (stereo not drawn)	1.05 µM (active)	4.47 µM (inactive)	3.08 µM (inactive)	3.15 µM (inactive)	1.98 µM (inactive)	3.37 µM (inactive)	10.1 µM (inactive)	0.305 µM (active)	1.82 µM (inactive)	3.68 µM (inactive)	37.7 µM (inactive)	7.24 µM (inactive)	14.8 µM (inactive)	18.9 µM (inactive)	2.1 µM (inactive)	10.6 µM (inactive)	0.097 µM (active)	1.16 µM (inactive)	0.303 µM (active)	41.4
COC(=O)C1=COC(C)C2C[n+]3ccc4c([nH]c5ccccc54)c3CC12 (stereo not drawn)	> 100 µM (inactive)	> 100 µM (inactive)	49.1 µM (inactive)	54.5 µM (inactive)	> 100 µM (inactive)	> 100 µM (inactive)	> 100 µM (inactive)	38.9 µM (inactive)	42.7 µM (inactive)	> 100 µM (inactive)	> 100 µM (inactive)	> 100 µM (inactive)	> 100 µM (inactive)	> 100 µM (inactive)	> 100 µM (inactive)	> 100 µM (inactive)	> 100 µM (inactive)	–	> 100 µM (inactive)	75.2
OCCN1CN(c2nc(N3CN(CCO)C3)nc(N3CN(CCO)C3)n2)C1	28 µM (inactive)	31.1 µM (inactive)	30.1 µM (inactive)	13.4 µM (inactive)	17.8 µM (inactive)	19.5 µM (inactive)	18.2 µM (inactive)	33.7 µM (inactive)	21.3 µM (inactive)	18.6 µM (inactive)	30.6 µM (inactive)	14.8 µM (inactive)	23.1 µM (inactive)	19.8 µM (inactive)	–	19.3 µM (inactive)	19.2 µM (inactive)	21.5 µM (inactive)	83.4 µM (inactive)	22.3
N#C[BH2-][n+]1ccc(C(=O)NNCc2ccc(F)cc2)cc1	> 100 µM (inactive)	> 100 µM (inactive)	> 100 µM (inactive)	> 100 µM (inactive)	> 100 µM (inactive)	> 100 µM (inactive)	> 100 µM (inactive)	> 100 µM (inactive)	> 100 µM (inactive)	> 100 µM (inactive)	> 100 µM (inactive)	> 100 µM (inactive)	> 100 µM (inactive)	> 100 µM (inactive)	> 100 µM (inactive)	–	> 100 µM (inactive)	> 100 µM (inactive)	> 100 µM (inactive)	> 100
C[C@H]1CCC2C(OC(=O)[C@@H]2CN(C)C)[C@]2(C)C(=O)C=CC12O (stereo partly drawn)	4.74 µM (inactive)	2 µM (inactive)	15.8 µM (inactive)	1.32 µM (inactive)	4.47 µM (inactive)	5.2 µM (inactive)	3.64 µM (inactive)	2.82 µM (inactive)	7.5 µM (inactive)	2.86 µM (inactive)	6.68 µM (inactive)	4.59 µM (inactive)	14.1 µM (inactive)	9.55 µM (inactive)	3.76 µM (inactive)	23.9 µM (inactive)	7.16 µM (inactive)	3.7 µM (inactive)	24.8 µM (inactive)	–
